Results reported in ChEMBL document CHEMBL5108048, “Potent GCN2 Inhibitor Capable of Reversing MDSC-Driven T Cell Suppression Demonstrates In Vivo Efficacy as a Single Agent and in Combination with Anti-Angiogenesis Therapy” (J Med Chem, 2022).

Legend:
eIF-2-alpha kinase GCN2 [1] = target: T1, eIF-2-alpha kinase GCN2 (Homo sapiens, UniProt Q9P2K8); test: Inhibition of GCN2 in human SK-OV-3 cells assessed as reduction in phosphorylation of eIF2alpha by cellular assay; assay type: cell-based
eIF-2-alpha kinase GCN2 [2] = target: T1, eIF-2-alpha kinase GCN2; test: Inhibition of GCN2 (unknown origin)
[3] = AUC (0-infinity) in Sprague-Dawley rat at 2 mg/kg,po; assay type: ADME, organism-based; parameters: time infinity, dose 2 mg/kg, route po; conditions: in vivo
[4] = […] in Sprague-Dawley rat […] assessed as half life at 0.5 mg/kg,iv; assay type: ADME, organism-based
[5] = Oral bioavailability in Sprague-Dawley rat at 2 mg/kg; assay type: ADME, organism-based; conditions: in vivo

T1 sequence (Q9P2K8 whole entry): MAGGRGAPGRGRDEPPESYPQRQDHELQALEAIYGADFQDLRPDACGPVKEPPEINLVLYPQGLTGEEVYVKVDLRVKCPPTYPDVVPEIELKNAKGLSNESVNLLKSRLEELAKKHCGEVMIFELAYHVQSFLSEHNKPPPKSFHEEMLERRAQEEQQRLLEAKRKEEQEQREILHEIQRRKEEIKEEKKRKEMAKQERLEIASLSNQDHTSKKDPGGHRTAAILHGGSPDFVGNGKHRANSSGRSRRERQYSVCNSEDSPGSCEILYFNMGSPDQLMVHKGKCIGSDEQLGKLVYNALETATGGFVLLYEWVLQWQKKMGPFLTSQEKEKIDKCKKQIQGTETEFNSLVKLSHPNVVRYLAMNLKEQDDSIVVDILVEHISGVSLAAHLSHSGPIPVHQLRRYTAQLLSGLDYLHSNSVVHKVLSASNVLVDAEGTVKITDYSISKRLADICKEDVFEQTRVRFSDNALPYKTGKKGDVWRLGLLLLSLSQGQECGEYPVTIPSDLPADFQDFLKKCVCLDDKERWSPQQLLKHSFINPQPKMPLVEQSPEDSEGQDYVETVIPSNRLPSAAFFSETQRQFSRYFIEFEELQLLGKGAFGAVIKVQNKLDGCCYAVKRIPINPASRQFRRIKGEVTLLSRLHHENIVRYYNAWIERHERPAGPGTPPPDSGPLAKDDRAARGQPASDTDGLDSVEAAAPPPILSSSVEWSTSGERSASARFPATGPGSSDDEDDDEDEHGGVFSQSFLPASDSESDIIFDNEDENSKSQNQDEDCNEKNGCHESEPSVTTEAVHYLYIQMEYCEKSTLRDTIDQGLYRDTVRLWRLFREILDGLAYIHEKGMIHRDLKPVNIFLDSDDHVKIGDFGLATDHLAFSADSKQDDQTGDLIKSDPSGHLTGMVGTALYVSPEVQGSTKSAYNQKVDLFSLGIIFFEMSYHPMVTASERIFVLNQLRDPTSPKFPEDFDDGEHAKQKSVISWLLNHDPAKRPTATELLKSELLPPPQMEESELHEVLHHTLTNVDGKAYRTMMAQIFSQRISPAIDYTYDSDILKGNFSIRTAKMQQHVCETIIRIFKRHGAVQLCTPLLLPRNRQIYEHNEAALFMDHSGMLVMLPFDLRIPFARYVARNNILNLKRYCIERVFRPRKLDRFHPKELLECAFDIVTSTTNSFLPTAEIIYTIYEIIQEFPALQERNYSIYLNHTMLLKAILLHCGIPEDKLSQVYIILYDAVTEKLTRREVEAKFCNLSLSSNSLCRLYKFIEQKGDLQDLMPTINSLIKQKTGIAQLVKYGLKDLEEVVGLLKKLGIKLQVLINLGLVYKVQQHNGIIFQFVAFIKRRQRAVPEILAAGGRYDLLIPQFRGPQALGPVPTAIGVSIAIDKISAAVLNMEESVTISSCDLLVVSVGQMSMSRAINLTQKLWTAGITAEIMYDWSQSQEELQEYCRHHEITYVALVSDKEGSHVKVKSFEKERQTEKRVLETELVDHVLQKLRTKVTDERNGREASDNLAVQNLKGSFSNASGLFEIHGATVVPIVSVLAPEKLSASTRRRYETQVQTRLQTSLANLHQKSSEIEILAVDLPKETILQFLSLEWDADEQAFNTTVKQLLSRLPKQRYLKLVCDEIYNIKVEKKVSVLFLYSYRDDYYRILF

Structure (SMILES): CNC(=O)[C@]1(C)CC[C@@H](Nc2ncc3c(Br)nn(-c4ccc(-c5nnc(C)s5)c(C#N)c4)c3n2)C1
- IC50 (eIF-2-alpha kinase GCN2 [1]): 35 nM
- IC50 (eIF-2-alpha kinase GCN2 [2]): 8 nM
- AUC(0-inf) [3]: 1150 ng·h/mL
- half-life [4]: 51 min
- bioavailability [5]: 39%

Structure (SMILES): CNC(=O)[C@]1(C)CC[C@@H](Nc2ncc3c(Br)nn(-c4ccc(-c5nnc(C)s5)c(CCO)c4)c3n2)C1
- IC50 (eIF-2-alpha kinase GCN2 [1]): 25 nM
- IC50 (eIF-2-alpha kinase GCN2 [2]): 16 nM
- AUC(0-inf) [3]: 518 ng·h/mL
- half-life [4]: 47 min
- bioavailability [5]: 15%

Structure (SMILES): FC(F)(F)c1nn(-c2ccc3ncccc3c2)c2nc(Nc3cnn(C4CCNCC4)c3)ncc12
- IC50 (eIF-2-alpha kinase GCN2 [2]): 168 nM

Structure (SMILES): CNC(=O)[C@]1(C)CC[C@@H](Nc2ncc3c(Br)nn(-c4ccc(-c5ncc(C)s5)cc4)c3n2)C1
- IC50 (eIF-2-alpha kinase GCN2 [2]): 76 nM

Structure (SMILES): CCn1cc(Nc2ncc3cnn(-c4ccc(OC)cc4)c3n2)cn1
- IC50 (eIF-2-alpha kinase GCN2 [2]): 133 nM

Structure (SMILES): CCn1cc(Nc2ncc3c(C)nn(-c4ccc5ncccc5c4)c3n2)cn1
- IC50 (eIF-2-alpha kinase GCN2 [2]): 23 nM

Structure (SMILES): COCCNC(=O)[C@H]1CC[C@@H](Nc2ncc3c(Br)nn(-c4ccc5ncccc5c4)c3n2)CC1
- IC50 (eIF-2-alpha kinase GCN2 [1]): 763 nM
- IC50 (eIF-2-alpha kinase GCN2 [2]): 211 nM

Structure (SMILES): CNC(=O)[C@@H]1CC[C@@H](Nc2ncc3c(Br)nn(-c4ccc5ncccc5c4)c3n2)C1
- IC50 (eIF-2-alpha kinase GCN2 [1]): 25 nM
- IC50 (eIF-2-alpha kinase GCN2 [2]): 21 nM

Structure (SMILES): COCCNC(=O)[C@@H]1CC[C@H](Nc2ncc3c(Br)nn(-c4ccc5ncccc5c4)c3n2)C1
- IC50 (eIF-2-alpha kinase GCN2 [2]): 923 nM

Structure (SMILES): Cc1nn(-c2ccc3ncccc3c2)c2nc(Nc3cnn(C4CCNCC4)c3)ncc12
- IC50 (eIF-2-alpha kinase GCN2 [2]): 11 nM

Structure (SMILES): CCn1cc(Nc2ncc3cccc(Nc4ccc(OC)cc4)c3n2)cn1
- IC50 (eIF-2-alpha kinase GCN2 [2]): > 1000 nM

Structure (SMILES): CNC(=O)[C@]1(C)CC[C@@H](Nc2ncc3c(Br)nn(-c4ccc5ncccc5c4)c3n2)C1
- IC50 (eIF-2-alpha kinase GCN2 [1]): 21 nM
- IC50 (eIF-2-alpha kinase GCN2 [2]): 17 nM

Structure (SMILES): CNC(=O)[C@]1(C)CC[C@@H](Nc2ncc3c(Br)nn(-c4ccc(-c5nnc(C)s5)c(CC#N)c4)c3n2)C1
- IC50 (eIF-2-alpha kinase GCN2 [2]): 78 nM

Structure (SMILES): CCn1cc(Nc2ncc3c(C)nn(-c4ccc(C#N)cc4)c3n2)cn1
- IC50 (eIF-2-alpha kinase GCN2 [2]): 56 nM

Structure (SMILES): CNC(=O)[C@]1(C)CC[C@@H](Nc2ncc3c(Br)nn(-c4ccc(-c5nnc(C)s5)c(CO)c4)c3n2)C1
- IC50 (eIF-2-alpha kinase GCN2 [2]): 91 nM

Structure (SMILES): CCn1cc(Nc2ncc3c(C)nn(-c4ccc(OC)cc4)c3n2)cn1
- IC50 (eIF-2-alpha kinase GCN2 [2]): 81 nM

Structure (SMILES): CNC(=O)[C@]1(C)CC[C@@H](Nc2ncc3c(Br)nn(-c4ccc(-c5nnc(C)s5)c(CNS(C)(=O)=O)c4)c3n2)C1
- IC50 (eIF-2-alpha kinase GCN2 [2]): 109 nM

Structure (SMILES): CNS(=O)(=O)[C@@H]1CC[C@@H](Nc2ncc3c(Br)nn(-c4ccc5ncccc5c4)c3n2)C1
- IC50 (eIF-2-alpha kinase GCN2 [1]): 106 nM
- IC50 (eIF-2-alpha kinase GCN2 [2]): 43 nM

Structure (SMILES): COCc1noc([C@@H]2CC[C@@H](Nc3ncc4c(Br)nn(-c5ccc6ncccc6c5)c4n3)C2)n1
- IC50 (eIF-2-alpha kinase GCN2 [2]): 106 nM

Structure (SMILES): CCn1cc(Nc2ccn3ncc(-c4ccc(OC)cc4)c3n2)cn1
- IC50 (eIF-2-alpha kinase GCN2 [2]): > 1000 nM

Structure (SMILES): COCCS(=O)(=O)N[C@@H]1CC[C@@H](Nc2ncc3c(Br)nn(-c4ccc5ncccc5c4)c3n2)C1 (relative stereo)
- IC50 (eIF-2-alpha kinase GCN2 [1]): 262 nM
- IC50 (eIF-2-alpha kinase GCN2 [2]): 55 nM

Structure (SMILES): CNC(=O)[C@]1(C)CC[C@@H](Nc2ncc3c(Br)nn(-c4ccc(-c5nnc(C)o5)cc4)c3n2)C1
- IC50 (eIF-2-alpha kinase GCN2 [1]): 16 nM
- IC50 (eIF-2-alpha kinase GCN2 [2]): 16 nM

Structure (SMILES): CNC(=O)[C@]1(C)CC[C@@H](Nc2ncc3c(Br)nn(-c4ccc(-c5nnc(C)s5)c(F)c4)c3n2)C1
- IC50 (eIF-2-alpha kinase GCN2 [1]): 33 nM
- IC50 (eIF-2-alpha kinase GCN2 [2]): 8 nM

Structure (SMILES): CCn1cc(Nc2ncc3cccc(-c4ccc(OC)cc4)c3n2)cn1
- IC50 (eIF-2-alpha kinase GCN2 [2]): > 1000 nM

Structure (SMILES): Brc1nn(-c2ccc3ncccc3c2)c2nc(N[C@@H]3CC[C@@H](c4ncc[nH]4)C3)ncc12 (relative stereo)
- IC50 (eIF-2-alpha kinase GCN2 [1]): 545 nM
- IC50 (eIF-2-alpha kinase GCN2 [2]): 21 nM

Structure (SMILES): CNC(=O)[C@]1(C)CC[C@@H](Nc2ncc3c(Br)nn(-c4ccc(-c5nnc(C)s5)c(CCS(C)(=O)=O)c4)c3n2)C1
- IC50 (eIF-2-alpha kinase GCN2 [1]): 9 nM
- IC50 (eIF-2-alpha kinase GCN2 [2]): 2 nM
- AUC(0-inf) [3]: 26 ng·h/mL
- half-life [4]: 39 min
- bioavailability [5]: 3%

Structure (SMILES): COCCNC(=O)[C@@H]1CC[C@@H](Nc2ncc3c(Br)nn(-c4ccc5ncccc5c4)c3n2)C1
- IC50 (eIF-2-alpha kinase GCN2 [1]): 20 nM
- IC50 (eIF-2-alpha kinase GCN2 [2]): 5 nM

Structure (SMILES): CNC(=O)[C@]1(C)CC[C@@H](Nc2ncc3c(Br)nn(-c4ccc(-c5nnc(C)s5)c(CCN(C)C)c4)c3n2)C1
- IC50 (eIF-2-alpha kinase GCN2 [2]): 29 nM

Structure (SMILES): CNC(=O)[C@]1(C)CC[C@@H](Nc2ncc3c(Br)nn(-c4ccc(-c5nnc(C)s5)c(CCC#N)c4)c3n2)C1
- IC50 (eIF-2-alpha kinase GCN2 [1]): 29 nM
- IC50 (eIF-2-alpha kinase GCN2 [2]): 10 nM
- AUC(0-inf) [3]: 1900 ng·h/mL
- half-life [4]: 13 min
- bioavailability [5]: 42%

Structure (SMILES): COCCNC(=O)[C@H]1C[C@H](Nc2ncc3c(Br)nn(-c4ccc5ncccc5c4)c3n2)C1
- IC50 (eIF-2-alpha kinase GCN2 [1]): 86 nM
- IC50 (eIF-2-alpha kinase GCN2 [2]): 40 nM

Structure (SMILES): COCCNC(=O)[C@H]1CC[C@H](Nc2ncc3c(Br)nn(-c4ccc5ncccc5c4)c3n2)C1
- IC50 (eIF-2-alpha kinase GCN2 [1]): 183 nM
- IC50 (eIF-2-alpha kinase GCN2 [2]): 144 nM

Structure (SMILES): CNC(=O)[C@]1(C)CC[C@@H](Nc2ncc3c(Br)nn(-c4ccc(-c5nnc(C)s5)c(S(C)(=O)=O)c4)c3n2)C1
- IC50 (eIF-2-alpha kinase GCN2 [2]): 61 nM

Structure (SMILES): COCCC(=O)N[C@@H]1CC[C@@H](Nc2ncc3c(Br)nn(-c4ccc5ncccc5c4)c3n2)C1
- IC50 (eIF-2-alpha kinase GCN2 [1]): 159 nM
- IC50 (eIF-2-alpha kinase GCN2 [2]): 74 nM

Structure (SMILES): Clc1nn(-c2ccc3ncccc3c2)c2nc(Nc3cnn(C4CCNCC4)c3)ncc12
- IC50 (eIF-2-alpha kinase GCN2 [2]): 5 nM

Structure (SMILES): CNC(=O)[C@]1(C)CC[C@@H](Nc2ncc3c(Br)nn(-c4ccc(-c5nnc(C)s5)c(CCN)c4)c3n2)C1
- IC50 (eIF-2-alpha kinase GCN2 [1]): 240 nM
- IC50 (eIF-2-alpha kinase GCN2 [2]): 15 nM

Structure (SMILES): CNC(=O)[C@]1(C)CC[C@@H](Nc2ncc3c(Br)nn(-c4ccc(-c5cnc(C)s5)cc4)c3n2)C1
- IC50 (eIF-2-alpha kinase GCN2 [2]): 27 nM

Structure (SMILES): COCCNC(=O)[C@H]1CC[C@@H](Nc2ncc3c(Br)nn(-c4ccc5ncccc5c4)c3n2)C1
- IC50 (eIF-2-alpha kinase GCN2 [1]): 156 nM
- IC50 (eIF-2-alpha kinase GCN2 [2]): 61 nM

Structure (SMILES): CNC(=O)[C@]1(C)CC[C@@H](Nc2ncc3c(Br)nn(-c4ccc(-c5nnc(C)s5)c(CS(C)(=O)=O)c4)c3n2)C1
- IC50 (eIF-2-alpha kinase GCN2 [2]): 211 nM

Structure (SMILES): Brc1nn(-c2ccc3ncccc3c2)c2nc(Nc3cnn(C4CCNCC4)c3)ncc12
- IC50 (eIF-2-alpha kinase GCN2 [1]): 610 nM
- IC50 (eIF-2-alpha kinase GCN2 [2]): 3 nM

Structure (SMILES): CCn1cc(Nc2ncc3ccn(-c4ccc(OC)cc4)c3n2)cn1
- IC50 (eIF-2-alpha kinase GCN2 [2]): 405 nM

Structure (SMILES): COCCNC(=O)[C@H]1CC[C@H](Nc2ncc3c(Br)nn(-c4ccc5ncccc5c4)c3n2)CC1
- IC50 (eIF-2-alpha kinase GCN2 [1]): 628 nM
- IC50 (eIF-2-alpha kinase GCN2 [2]): 159 nM

Structure (SMILES): CS(=O)(=O)N1CC[C@@H](Nc2ncc3c(Br)nn(-c4ccc5ncccc5c4)c3n2)C1
- IC50 (eIF-2-alpha kinase GCN2 [1]): 378 nM
- IC50 (eIF-2-alpha kinase GCN2 [2]): 90 nM

Structure (SMILES): COCCNC(=O)CNc1ncc2c(Br)nn(-c3ccc4ncccc4c3)c2n1
- IC50 (eIF-2-alpha kinase GCN2 [2]): > 1000 nM

Structure (SMILES): CNC(=O)[C@]1(C)CC[C@@H](Nc2ncc3c(Br)nn(-c4ccc(-c5nnc(C)s5)cc4F)c3n2)C1
- IC50 (eIF-2-alpha kinase GCN2 [2]): 359 nM

Structure (SMILES): COCCNC(=O)CCNc1ncc2c(Br)nn(-c3ccc4ncccc4c3)c2n1
- IC50 (eIF-2-alpha kinase GCN2 [2]): > 1000 nM
